Results taken from patent publication US10409869B2, “(R)- and (S)-1-(3-(3-N,N-dimethylaminocarbonyl)phenoxyl-4-nitrophenyl)-1-ethyl-N,N'-bis (ethylene)phosphoramidate, compositions and methods for their use and preparation” (OBI Pharma, Inc., priority 2015, dated 2019).

Assays:
[1] = Hematology in monkeys, 2 mg/kg 30-min IV infusion; assay type: in vivo, Cynomolgus monkeys
Protocol: (§1) TH 3423 and TH 3424 were tested in […] naïve monkeys (1 male and one female for each compound at 2 mg/kg) with 30-min intravenous infusion, TK sampling: on Day 1 and Day 15: 0.25, 0.5, 0.75, 1 and 2 hr post infusion initiation. Serum chemistry and hematology: pre-dose (Day 1), day 5, day 8 (pre-dose), day 15 (pre-dose), day 22 and day 28. Clinical observation: Daily during the study, total 35 days. Food consumption: Daily during the study, total 35 days. Bodyweight measurement: Twice weekly for five weeks.

[2] = Body weight and toxicity in the orthotopic HepG2-GFP mouse model; assay type: in vivo, nude mice; conditions: intra-peritoneal, low (2.5 mg/kg) or high (5 mg/kg) dose
[3] = Plasma concentration and TK after 30-min IV infusion at 2 mg/kg; assay type: in vivo, Cynomolgus monkeys; conditions: Cynomolgus, cynomolgus monkey, plasma, iv, 2 mg/kg
Protocol: as §1

In the case of `C[C@H](OP(=O)(N1CC1)N1CC1)c1ccc([N+](=O)[O-])c(Oc2cccc(C(=O)N(C)C)c2)c1` (single isomer, unassigned) [TH3424], the “% BASO” value ([1]; female, Day 1 (pre-dose)) is reported as 0.1%, the “% EOS” value ([1]; female, Day 1 (pre-dose)) is reported as 3.3% and the “% MONO” value ([1]; female, Day 1 (pre-dose)) is reported as 0.9%. For the same compound, the “% NEUT” value ([1]; female, Day 1 (pre-dose)) was 72.8%, the HCT ([1]; female, Day 1 (pre-dose)) was 35.7% and the HGB ([1]; female, Day 1 (pre-dose)) was 118 g/L. For the same compound, the LYM ([1]; female, Day 1 (pre-dose)) was 22.9%, the MCH ([1]; female, Day 1 (pre-dose)) was 25.4 pg and the MCHC ([1]; female, Day 1 (pre-dose)) was 331 g/L. It also gave an MCV ([1]; female, Day 1 (pre-dose)) of 76.8 fL, an MPV ([1]; female, Day 1 (pre-dose)) of 13 fL and a PCT ([1]; female, Day 1 (pre-dose)) of 0.277%. The PDW ([1]; female, Day 1 (pre-dose)) was 15.4, the PLT ([1]; female, Day 1 (pre-dose)) was 2.13e+11 L⁻¹ and the RBC ([1]; female, Day 1 (pre-dose)) was 4.65e+12 L⁻¹. The RDW-CV ([1]; female, Day 1 (pre-dose)) was 11.5%, the RDW-SD ([1]; female, Day 1 (pre-dose)) was 37.4 fL and the WBC ([1]; female, Day 1 (pre-dose)) was 1.164e+10 L⁻¹. The abs_basos ([1]; female, Day 1 (pre-dose)) was 1e+07 L⁻¹, the abs_eos ([1]; female, Day 1 (pre-dose)) was 3.9e+08 L⁻¹ and the abs_lymphs ([1]; female, Day 1 (pre-dose)) was 2.66e+09 L⁻¹. For the same compound, the abs_monos ([1]; female, Day 1 (pre-dose)) was 1.1e+08 L⁻¹, the abs_neuts ([1]; female, Day 1 (pre-dose)) was 8.47e+09 L⁻¹ and the “% EOS” value ([1]; female, Day 8 (pre-dose)) was 1.50%. For the same compound, the “% MONO” value ([1]; female, Day 8 (pre-dose)) was 0.20%, the “% NEUT” value ([1]; female, Day 8 (pre-dose)) was 49.10% and the HCT ([1]; female, Day 8 (pre-dose)) was 39.30%. It also gave an HGB ([1]; female, Day 8 (pre-dose)) of 130.00 g/L, an LYM ([1]; female, Day 8 (pre-dose)) of 18.90% and an MCH ([1]; female, Day 8 (pre-dose)) of 25.30 pg. For the same compound, the MCHC ([1]; female, Day 8 (pre-dose)) was 331.00 g/L, the MCV ([1]; female, Day 8 (pre-dose)) was 76.30 fL and the MPV ([1]; female, Day 8 (pre-dose)) was 12.80 fL. It also gave a PCT ([1]; female, Day 8 (pre-dose)) of 0.50%, a PDW ([1]; female, Day 8 (pre-dose)) of 15.50 and a PLT ([1]; female, Day 8 (pre-dose)) of 3.9e+11 L⁻¹. It also gave an RBC ([1]; female, Day 8 (pre-dose)) of 5.15e+12 L⁻¹, an RDW-CV ([1]; female, Day 8 (pre-dose)) of 11.20% and an RDW-SD ([1]; female, Day 8 (pre-dose)) of 36.20 fL. It also gave a WBC ([1]; female, Day 8 (pre-dose)) of 1.691e+10 L⁻¹, an abs_basos ([1]; female, Day 8 (pre-dose)) of 5.13e+09 L⁻¹ and an abs_eos ([1]; female, Day 8 (pre-dose)) of 2.6e+08 L⁻¹. For the same compound, the abs_lymphs ([1]; female, Day 8 (pre-dose)) was 3.2e+09 L⁻¹, the abs_monos ([1]; female, Day 8 (pre-dose)) was 3e+07 L⁻¹ and the abs_neuts ([1]; female, Day 8 (pre-dose)) was 8.29e+09 L⁻¹. The “% BASO” value ([1]; female, Day 15 (pre-dose)) was 0.90%, the “% EOS” value ([1]; female, Day 15 (pre-dose)) was 1.70% and the “% MONO” value ([1]; female, Day 15 (pre-dose)) was 3.00%. For the same compound, the “% NEUT” value ([1]; female, Day 15 (pre-dose)) was 80.8%, the HCT ([1]; female, Day 15 (pre-dose)) was 36.3% and the HGB ([1]; female, Day 15 (pre-dose)) was 125 g/L. The LYM ([1]; female, Day 15 (pre-dose)) was 13.60%, the MCH ([1]; female, Day 15 (pre-dose)) was 25.3 pg and the MCHC ([1]; female, Day 15 (pre-dose)) was 344 g/L. The MCV ([1]; female, Day 15 (pre-dose)) was 73.5 fL, the MPV ([1]; female, Day 15 (pre-dose)) was 12.5 fL and the PCT ([1]; female, Day 15 (pre-dose)) was 0.275%. It also gave a PDW ([1]; female, Day 15 (pre-dose)) of 16.2, a PLT ([1]; female, Day 15 (pre-dose)) of 2.21e+11 L⁻¹ and an RBC ([1]; female, Day 15 (pre-dose)) of 4.94e+12 L⁻¹. For the same compound, the RDW-CV ([1]; female, Day 15 (pre-dose)) was 11.0%, the RDW-SD ([1]; female, Day 15 (pre-dose)) was 34.1 fL and the WBC ([1]; female, Day 15 (pre-dose)) was 2.07e+10 L⁻¹. For the same compound, the abs_basos ([1]; female, Day 15 (pre-dose)) was 1.9e+08 L⁻¹, the abs_eos ([1]; female, Day 15 (pre-dose)) was 3.7e+08 L⁻¹ and the abs_lymphs ([1]; female, Day 15 (pre-dose)) was 2.8e+09 L⁻¹. For the same compound, the abs_monos ([1]; female, Day 15 (pre-dose)) was 6.2e+08 L⁻¹, the abs_neuts ([1]; female, Day 15 (pre-dose)) was 1.67e+10 L⁻¹ and the “% BASO” value ([1]; male, Day 1 (pre-dose)) was 0.0%. For the same compound, the “% EOS” value ([1]; male, Day 1 (pre-dose)) was 2.6%, the “% MONO” value ([1]; male, Day 1 (pre-dose)) was 0.1% and the “% NEUT” value ([1]; male, Day 1 (pre-dose)) was 58.4%. For the same compound, the HCT ([1]; male, Day 1 (pre-dose)) was 34.9%, the HGB ([1]; male, Day 1 (pre-dose)) was 117 g/L and the LYM ([1]; male, Day 1 (pre-dose)) was 38.9%. For the same compound, the MCH ([1]; male, Day 1 (pre-dose)) was 25.7 pg, the MCHC ([1]; male, Day 1 (pre-dose)) was 335 g/L and the MCV ([1]; male, Day 1 (pre-dose)) was 76.7 fL. The MPV ([1]; male, Day 1 (pre-dose)) was 11.1 fL, the PCT ([1]; male, Day 1 (pre-dose)) was 0.267% and the PDW ([1]; male, Day 1 (pre-dose)) was 15.5. The PLT ([1]; male, Day 1 (pre-dose)) was 2.4e+11 L⁻¹, the RBC ([1]; male, Day 1 (pre-dose)) was 4.55e+12 L⁻¹ and the RDW-CV ([1]; male, Day 1 (pre-dose)) was 11.8%. For the same compound, the RDW-SD ([1]; male, Day 1 (pre-dose)) was 38.1 fL, the WBC ([1]; male, Day 1 (pre-dose)) was 4.71e+09 L⁻¹ and the abs_basos ([1]; male, Day 1 (pre-dose)) was 0 L⁻¹. For the same compound, the abs_eos ([1]; male, Day 1 (pre-dose)) was 1.2e+08 L⁻¹, the abs_lymphs ([1]; male, Day 1 (pre-dose)) was 1.84e+09 L⁻¹ and the abs_monos ([1]; male, Day 1 (pre-dose)) was 0 L⁻¹. For the same compound, the abs_neuts ([1]; male, Day 1 (pre-dose)) was 2.75e+09 L⁻¹, the “% BASO” value ([1]; male, Day 8 (pre-dose)) was 5.30% and the “% EOS” value ([1]; male, Day 8 (pre-dose)) was 1.10%. The “% MONO” value ([1]; male, Day 8 (pre-dose)) was 13.10%, the “% NEUT” value ([1]; male, Day 8 (pre-dose)) was 34.60% and the HCT ([1]; male, Day 8 (pre-dose)) was 35.20%. It also gave an HGB ([1]; male, Day 8 (pre-dose)) of 117.00 g/L, an LYM ([1]; male, Day 8 (pre-dose)) of 45.90% and an MCH ([1]; male, Day 8 (pre-dose)) of 25.50 pg. For the same compound, the MCHC ([1]; male, Day 8 (pre-dose)) was 332.00 g/L, the MCV ([1]; male, Day 8 (pre-dose)) was 76.70 fL and the MPV ([1]; male, Day 8 (pre-dose)) was 10.30 fL. The PCT ([1]; male, Day 8 (pre-dose)) was 0.51%, the PDW ([1]; male, Day 8 (pre-dose)) was 15.30 and the PLT ([1]; male, Day 8 (pre-dose)) was 4.96e+11 L⁻¹. For the same compound, the RBC ([1]; male, Day 8 (pre-dose)) was 4.59e+12 L⁻¹, the RDW-CV ([1]; male, Day 8 (pre-dose)) was 11.50% and the RDW-SD ([1]; male, Day 8 (pre-dose)) was 37.20 fL. The WBC ([1]; male, Day 8 (pre-dose)) was 9.15e+09 L⁻¹, the abs_basos ([1]; male, Day 8 (pre-dose)) was 4.9e+08 L⁻¹ and the abs_eos ([1]; male, Day 8 (pre-dose)) was 1e+08 L⁻¹. The abs_lymphs ([1]; male, Day 8 (pre-dose)) was 4.19e+09 L⁻¹, the abs_monos ([1]; male, Day 8 (pre-dose)) was 1.21e+09 L⁻¹ and the abs_neuts ([1]; male, Day 8 (pre-dose)) was 3.16e+09 L⁻¹. For the same compound, the “% BASO” value ([1]; male, Day 15 (pre-dose)) was 0.10%, the “% EOS” value ([1]; male, Day 15 (pre-dose)) was 3.10% and the “% MONO” value ([1]; male, Day 15 (pre-dose)) was 4.40%. The “% NEUT” value ([1]; male, Day 15 (pre-dose)) was 65.7%, the HCT ([1]; male, Day 15 (pre-dose)) was 37.4% and the HGB ([1]; male, Day 15 (pre-dose)) was 127 g/L. For the same compound, the LYM ([1]; male, Day 15 (pre-dose)) was 26.70%, the MCH ([1]; male, Day 15 (pre-dose)) was 25.3 pg and the MCHC ([1]; male, Day 15 (pre-dose)) was 340 g/L. It also gave an MCV ([1]; male, Day 15 (pre-dose)) of 74.5 fL, an MPV ([1]; male, Day 15 (pre-dose)) of 9.5 fL and a PCT ([1]; male, Day 15 (pre-dose)) of 0.593%. For the same compound, the PDW ([1]; male, Day 15 (pre-dose)) was 15.4, the PLT ([1]; male, Day 15 (pre-dose)) was 6.23e+11 L⁻¹ and the RBC ([1]; male, Day 15 (pre-dose)) was 5.02e+12 L⁻¹. For the same compound, the RDW-CV ([1]; male, Day 15 (pre-dose)) was 11.5%, the RDW-SD ([1]; male, Day 15 (pre-dose)) was 36.3 fL and the WBC ([1]; male, Day 15 (pre-dose)) was 1.326e+10 L⁻¹. The abs_basos ([1]; male, Day 15 (pre-dose)) was 2e+07 L⁻¹, the abs_eos ([1]; male, Day 15 (pre-dose)) was 4.1e+08 L⁻¹ and the abs_lymphs ([1]; male, Day 15 (pre-dose)) was 3.54e+09 L⁻¹. For the same compound, the abs_monos ([1]; male, Day 15 (pre-dose)) was 5.9e+08 L⁻¹, the abs_neuts ([1]; male, Day 15 (pre-dose)) was 8.7e+09 L⁻¹ and the “toxicity to the experimental mice” value [2] was “no obvious toxicity”. The “toxicity to the experimental mice” value ([2]; listed as TH2870-2) was “no obvious acute toxicity”, the AUC(0-inf) ([3]; both sexes, Mean) was 1460 ng·h/mL and the AUC(0-t) ([3]; both sexes, Mean) was 1460 ng·h/mL. For the same compound, the AUC(0-inf) ([3]; female) was 1200 ng·h/mL, the AUC(0-t) ([3]; female) was 1200 ng·h/mL and the AUC(0-inf) ([3]; male) was 1730 ng·h/mL. The AUC(0-t) ([3]; male) was 1720 ng·h/mL.
